Test system: glucocorticoid-treated rats
Experiment: Biochemical tests of serum bone parameters in treatment groups of osteoporotic (prednisolone) rats
Assay type: in vivo, rat
[1] = serum, * = significant difference with prednisolone group

Substance: Vitamin D
- Ph (serum phosphorus): 7.525 ± 0.4272
- Bone-ALP [1]: 312 ± 24.42
- Ca [1]: 9.367 ± 0.3786
- OPG [1]: 3.325 ± .9012
- Osteocalcin [1]: 16.5 ± 2.121
